In ChEMBL document CHEMBL1141270, “Withanolides from Jaborosa kurtzii” (2007) one finds inhibition data, which are given here for one compound.

One may read the inhibition as the percentage by which the read-out fell short of the control.

The subject of one test is Lactuca sativa. Briefly: Phytotoxicity against Lactuca sativa assessed as inhibition in radicle length at 400 ppm. In kind it is functional.
For another test, the system named is Avena sativa. The test can be described thus: Phytotoxicity against Avena sativa assessed as inhibition of radicle length at 400 ppm. In kind it is functional.

As to `CC1=C(C)C(=O)O[C@]2(C1)O[C@@]1(O)CC3C(CC=C4CC=CC(=O)[C@@]43C)C3CC[C@@](O)([C@@H]2C)[C@]31C` (some centres not stated) [JABOROSALACTONE 43], the inhibition at 400 ppm is 32% with Lactuca sativa and 4% with Avena sativa.
